Results on 20 molecules are retold here after patent US20230131899A1, “INHIBITORS OF MICROBIALLY INDUCED AMYLOID” (Axial Therapeutics, Inc., priority 2020, published 2023).

Like-named read-outs stand apart in the source and are kept apart here.

This assay concerns the target T1, human α-synuclein (Homo sapiens, UniProt P37840).
T1 construct: the full-length gene for untagged human α-synuclein was inserted; made in house; host or cells: E. coli BL21(DE3), plasmid derived from pT7 or pET11a
Description: Cell-free Thioflavin T assay of α-synuclein aggregation (αSyn ThT Assay). It is filed as biochemical. The conditions noted are these: αSyn 50 μM. The essentials: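 Untagged full-length human α-synuclein from E. coli, 50 μM, with 20-40 μM ThT, 1% DMSO, compound at 20-100 μM and a glass bead, 37° C. with shaking. Fluorescence (ex 438/em 495 nm) read hourly to 73 h. Compound-only background subtracted and values normalised to vehicle at 36-72 h or final timepoint, giving % inhibition.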

Where [1] appears, read: mean % inhibition of αSyn aggregation relative to DMSO control, compounds at 100 μM, read-out: αSyn ThT Assay % Inhibition.
Where [2] appears, read: compounds at 100 μM, class symbol, read-out: αSyn ThT Assay % Inhibition (activity range).
Setting [3] is: class symbol, compounds 100 μM, read-out: αSyn ThT Assay % inhibition, activity range.
Where [4] appears, read: mean percent inhibition relative to DMSO control, compounds 100 μM, read-out: αSyn ThT Assay % inhibition.

Regarding `Cn1c(=O)c2c(nc(CCCCN3CC(C(=O)O)n4c(c(-c5cccc(C(F)(F)F)c5)c(Cc5cccc6ccccc56)cc4=O)S3(=O)=O)n2C)n(C)c1=O` (stereo not shown) [Compound 044, 8-(naphthalen-1-ylmethyl)-6-oxo-9-(3-(trifluoromethyl)phenyl)-2-(4-(1,3,7-trimethyl-2,6-dioxo-2,3,6,7-tetrahydro-1H-purin-8-yl)butyl)-3,4-dihydro-2H,6H-pyrido[1,2-e][1,2,5]thiadiazine-4-carboxylic acid 1,1-dioxide], the inhibition at 100 µM is, setting by setting: under setting [1], 10%; under setting [2], -10 to 10%.
Turning to `CCc1c(Cc2cccc3ccccc23)c(-c2cccc(C(F)(F)F)c2)c2n(c1=O)C(C(=O)O)CN2Cc1ccc(OC)cc1` (stereo not shown) [Compound 161, 6-ethyl-1-(4-methoxybenzyl)-7-(naphthalen-1-ylmethyl)-5-oxo-8-(3-(trifluoromethyl)phenyl)-1,2,3,5-tetrahydroimidazo[1,2-a]pyridine-3-carboxylic acid], the inhibition at 100 µM is 31 to 60% under setting [3] and 44% under setting [4].
In the case of `O=C(O)C1CN(CCC2CCCCC2)c2c(-c3cccc(C(F)(F)F)c3)c(Cc3cccc4ccccc34)c(Cl)c(=O)n21` (stereo not shown) [Compound 207, 6-chloro-1-(2-cyclohexylethyl)-7-(naphthalen-1-ylmethyl)-5-oxo-8-(3-(trifluoromethyl)phenyl)-1,2,3,5-tetrahydroimidazo[1,2-a]pyridine-3-carboxylic acid], the inhibition at 100 µM is more than 60% under setting [3] and 71% under setting [4].
For `CCCNC(=O)c1c(Cc2cccc3ccccc23)c(-c2cccc(C(F)(F)F)c2)c2n(c1=O)C(C(=O)O)CN(C)S2(=O)=O` (stereo not shown) [Compound 154, 2-methyl-8-(naphthalen-1-ylmethyl)-6-oxo-7-(propylcarbamoyl)-9-(3-(trifluoromethyl)phenyl)-3,4-dihydro-2H,6H-pyrido[1,2-e][1,2,5]thiadiazine-4-carboxylic acid 1,1-dioxide], the inhibition at 100 µM is more than 60% under setting [3] and 89% under setting [4].
As to `CNC(=O)CCCCN1CC(C(=O)O)n2c(c(-c3cccc(C(F)(F)F)c3)c(Cc3cccc4ccccc34)cc2=O)S1(=O)=O` (stereo not shown) [Compound 038, 2-(5-(methylamino)-5-oxopentyl)-8-(naphthalen-1-ylmethyl)-6-oxo-9-(3-(trifluoromethyl)phenyl)-3,4-dihydro-2H,6H-pyrido[1,2-e][1,2,5]thiadiazine-4-carboxylic acid 1,1-dioxide], the inhibition at 100 µM is, setting by setting: under setting [1], 42%; under setting [2], 31 to 60%.
For `CC1(C)Sc2c(-c3cccc(C(F)(F)F)c3)c(Cc3cccc4ccccc34)nc(=O)n2C1C(=O)O` (stereo not shown) [Compound 059, 2,2-dimethyl-7-(naphthalen-1-ylmethyl)-5-oxo-8-(3-(trifluoromethyl)phenyl)-2,3-dihydro-5H-thiazolo[3,2-c]pyrimidine-3-carboxylic acid], the inhibition at 100 µM under setting [1] came to 36% and the inhibition at 100 µM under setting [2] lay in the range of 31 to 60%.
On the same counts, the results for `Nc1c(Cc2cccc3ccccc23)c(-c2cccc(C(F)(F)F)c2)c2n(c1=O)C(C(=O)O)CS2` (single isomer, unassigned) [Compound 020b, 6-amino-7-(naphthalen-1-ylmethyl)-5-oxo-8-(3-(trifluoromethyl)phenyl)-2,3-dihydro-5H-thiazolo[3,2-a]pyridine-3-carboxylic acid] are 25% and 11 to 30%.
For `O=C(O)C1CN(C[C@@H](O)CO)S(=O)(=O)c2c(-c3cccc(C(F)(F)F)c3)c(Cc3cccc4ccccc34)cc(=O)n21` (mixture of isomers) [Compound 065b, 2-((R)-2,3-dihydroxypropyl)-8-(naphthalen-1-ylmethyl)-6-oxo-9-(3-(trifluoromethyl)phenyl)-3,4-dihydro-2H,6H-pyrido[1,2-e][1,2,5]thiadiazine-4-carboxylic acid 1,1-dioxide], the inhibition at 100 µM is 9% under setting [1] and -10 to 10% under setting [2].
The like results for `CCCN1CC(C(=O)O)n2c(c(-c3cccc(C(F)(F)F)c3)c(Cc3cccc4ccccc34)cc2=O)S1(=O)=O` (single isomer, unassigned) [Compound 016b, 8-(naphthalen-1-ylmethyl)-6-oxo-2-propyl-9-(3-(trifluoromethyl)phenyl)-3,4-dihydro-2H,6H-pyrido[1,2-e][1,2,5]thiadiazine-4-carboxylic acid 1,1-dioxide] were, in that order, 95% and more than 60%.
`O=C(O)[C@@H]1CN(Cc2ccccc2)c2c(-c3cccc(C(F)(F)F)c3)c(Cc3cccc4ccccc34)c(Cl)c(=O)n21` (single isomer, unassigned) [Compound 004a]: the inhibition at 100 µM under setting [3] is 31 to 60% and the inhibition at 100 µM under setting [4] is 42%.
Regarding `O=C(O)C1CN(Cc2cccnc2)c2c(-c3cccc(C(F)(F)F)c3)c(Cc3cccc4ccccc34)c(Cl)c(=O)n21` (stereo not shown) [Compound 169, 6-chloro-7-(naphthalen-1-ylmethyl)-5-oxo-1-(pyridin-3-ylmethyl)-8-(3-(trifluoromethyl)phenyl)-1,2,3,5-tetrahydroimidazo[1,2-a]pyridine-3-carboxylic acid], the inhibition at 100 µM is, setting by setting: under setting [3], 31 to 60%; under setting [4], 33%.
The like results for `O=C(O)C1CN(CC2CCOCC2)c2c(-c3cccc(C(F)(F)F)c3)c(Cc3cccc4ccccc34)c(Cl)c(=O)n21` (stereo not shown) [Compound 182, 6-chloro-7-(naphthalen-1-ylmethyl)-5-oxo-1-((tetrahydro-2H-pyran-4-yl)methyl)-8-(3-(trifluoromethyl)phenyl)-1,2,3,5-tetrahydroimidazo[1,2-a]pyridine-3-carboxylic acid] were, in that order, 31 to 60% and 33%.
On the same counts, the results for `O=C(O)C1CN(CCCO)c2c(-c3cccc(C(F)(F)F)c3)c(Cc3cccc4ccccc34)c(Cl)c(=O)n21` (stereo not shown) [Compound 197, 6-chloro-1-(3-hydroxypropyl)-7-(naphthalen-1-ylmethyl)-5-oxo-8-(3-(trifluoromethyl)phenyl)-1,2,3,5-tetrahydroimidazo[1,2-a]pyridine-3-carboxylic acid] are 31 to 60% and 39%.
On the same counts, the results for `O=C(O)C1CN(CC2CCCCC2)c2c(-c3cccc(C(F)(F)F)c3)c(Cc3cccc4ccccc34)c(Cl)c(=O)n21` (stereo not shown) [Compound 180, 6-chloro-1-(cyclohexylmethyl)-7-(naphthalen-1-ylmethyl)-5-oxo-8-(3-(trifluoromethyl)phenyl)-1,2,3,5-tetrahydroimidazo[1,2-a]pyridine-3-carboxylic acid] are more than 60% and 63%.
Take `CCCCN1CC(C(=O)O)n2c(c(-c3cccc(C(F)(F)F)c3)c(Cc3cccc4ccccc34)c(C(N)=O)c2=O)S1(=O)=O` (stereo not shown) [Compound 177, 2-butyl-7-carbamoyl-8-(naphthalen-1-ylmethyl)-6-oxo-9-(3-(trifluoromethyl)phenyl)-3,4-dihydro-2H,6H-pyrido[1,2-e][1,2,5]thiadiazine-4-carboxylic acid 1,1-dioxide]: the inhibition at 100 µM runs as follows: under setting [3], more than 60%; under setting [4], 97%.
In the case of `NC(=O)c1c(Cc2cccc3ccccc23)c(-c2cccc(C(F)(F)F)c2)c2n(c1=O)C(C(=O)O)CN(C1CCCC1)S2(=O)=O` (stereo not shown) [Compound 176, 7-carbamoyl-2-cyclopentyl-8-(naphthalen-1-ylmethyl)-6-oxo-9-(3-(trifluoromethyl)phenyl)-3,4-dihydro-2H,6H-pyrido[1,2-e][1,2,5]thiadiazine-4-carboxylic acid 1,1-dioxide], the inhibition at 100 µM is more than 60% under setting [3] and 98% under setting [4].
In the case of `N#Cc1cccc(CN2CC(C(=O)O)n3c2c(-c2cccc(C(F)(F)F)c2)c(Cc2cccc4ccccc24)c(Cl)c3=O)c1` (stereo not shown) [Compound 168, 6-chloro-1-(3-cyanobenzyl)-7-(naphthalen-1-ylmethyl)-5-oxo-8-(3-(trifluoromethyl)phenyl)-1,2,3,5-tetrahydroimidazo[1,2-a]pyridine-3-carboxylic acid], the inhibition at 100 µM was 31 to 60% under setting [3] and 43% under setting [4].
Consider `CCCCCN1CC(C(=O)O)n2c(c(-c3cccc(C(F)(F)F)c3)c(Cc3cccc4ccccc34)cc2=O)S1(=O)=O` (single isomer, unassigned) [Compound 025a, 8-(naphthalen-1-ylmethyl)-6-oxo-2-pentyl-9-(3-(trifluoromethyl)phenyl)-3,4-dihydro-2H,6H-pyrido[1,2-e][1,2,5]thiadiazine-4-carboxylic acid 1,1-dioxide], for which the inhibition at 100 µM was 50% under setting [1] and 31 to 60% under setting [2].
Regarding `O=C(O)C1CN(C[C@H](O)CO)S(=O)(=O)c2c(-c3cccc(C(F)(F)F)c3)c(Cc3cccc4ccccc34)cc(=O)n21` (stereo partly drawn) [Compound 065a, 2-((S)-2,3-dihydroxypropyl)-8-(naphthalen-1-ylmethyl)-6-oxo-9-(3-(trifluoromethyl)phenyl)-3,4-dihydro-2H,6H-pyrido[1,2-e][1,2,5]thiadiazine-4-carboxylic acid 1,1-dioxide], the inhibition at 100 µM is 32% under setting [1] and 31 to 60% under setting [2].
Consider `CCCCN1CC(C(=O)O)n2c1c(-c1cccc(C(F)(F)F)c1)c(Cc1cccc3ccccc13)c(Cl)c2=O` (stereo not shown) [Compound 163, 1-butyl-6-chloro-7-(naphthalen-1-ylmethyl)-5-oxo-8-(3-(trifluoromethyl)phenyl)-1,2,3,5-tetrahydroimidazo[1,2-a]pyridine-3-carboxylic acid], for which the inhibition at 100 µM by setting is: under setting [3], 31 to 60%; under setting [4], 47%.

In general, inhibition refers to the change of the read-out against control, counted positive when it falls.
